Results as given in patent publication US4925943A, “2-(2-aminobenzyl or 2-nitrobenzyl)-1,2,3,4-tetrahydroisoquinoline derivatives” (priority 1986, dated 1990).
Like-named read-outs stand apart in the source and are kept apart here. One block for each molecule: values may come before it.

Legend:
[1] = target: α1 adrenergic receptors of rat cerebral cortex; experiment: [3H] prazosine binding, rat cerebral cortex (α1); parameters: species or system rat (male Wistar); conditions: for Ki: read-out: Prazosine [^3 H] Ki nM, rat cerebral cortex, 0.2 nM [3H] prazosine, 25° C., 30 minutes, at least three experiments ± standard deviation
Experimental: (§1) The preparation of the cerebral cortex homogenates is made starting from male Wistar rats, age 12 weeks. After decapitation, the brains are rapidly removed and dissected. The tissues are homogenized with the aid of an ultra-turrax in 50 mM of a pH 7.5 Tris-HCl buffer and centrifuged at 40,000 g for ten minutes. The centrifugate is dissolved in buffer and recentrifuged in the same way. All of the operations are carried out at a temperature less than 4° C. The final centrifugate is homogenized in the incubation buffer maintained in melting ice (tris-HCl 50 mM pH 7.5) so as to obtain a final dilution of the cortical tissue of 1/100 (by volume), which corresponds to about 0.5 mg of protein per ml.
(§2) These filters are rinsed 4 times with 5 ml of incubation buffer preserved in ice. The radioactivity retained on the filters is counted by liquid scintillation. The non-specific fixation of the radioactive ligand is evaluated in the presence of 10 μM phentolamine.
(§3) Starting from the inhibition curves for the specific fixation of a ligand to its receptor by increasing quantities of a non-radioactive product, the inhibition constant (Ki) of this product is determined.

[2] = target: T1, α2 adrenergic receptors of rat cerebral cortex (Rattus norvegicus, UniProt P22909); experiment: [3H] yohimbine binding, rat cerebral cortex (α2); parameters: species or system rat (male Wistar)
T1 construct: The preparation of the cerebral cortex homogenates is made starting from male Wistar rats; from tissue; host or cells: cerebral cortex homogenate of male Wistar rats
T1 sequence (P22909 1-465): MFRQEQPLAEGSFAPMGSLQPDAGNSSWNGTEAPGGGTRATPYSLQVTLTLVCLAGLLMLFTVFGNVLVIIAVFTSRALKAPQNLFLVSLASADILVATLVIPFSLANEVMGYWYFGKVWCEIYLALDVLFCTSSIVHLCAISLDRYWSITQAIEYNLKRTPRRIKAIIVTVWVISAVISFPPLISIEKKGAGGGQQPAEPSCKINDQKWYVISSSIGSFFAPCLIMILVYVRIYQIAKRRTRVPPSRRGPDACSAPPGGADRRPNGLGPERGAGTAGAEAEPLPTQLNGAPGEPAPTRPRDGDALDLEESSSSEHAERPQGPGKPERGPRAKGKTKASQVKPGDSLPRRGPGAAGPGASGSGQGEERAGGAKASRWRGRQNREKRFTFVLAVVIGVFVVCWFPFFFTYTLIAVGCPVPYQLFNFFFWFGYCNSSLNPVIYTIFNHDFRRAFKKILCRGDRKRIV
Experimental: as §1, §2, §3

D2 dopaminergic receptor = experiment: binding sites of [3H] dexetimide
serotonergic receptor = experiment: binding sites of [3H] ketanserine
H1 histaminic receptor = experiment: binding sites of [3H] pyrilamine
[3] = test system: binding sites of [^3 H] nitrendipine (calcium influx blocking agent); experiment: binding sites of [3H] nitrendipine
[4] = test system: α2 adrenergic receptors of rat aorta; experiment: antagonism of BHT 920 induced contraction of isolated rat aorta; parameters: species or system rat (female Wistar)
Experimental: The antagonism of ISK7 relative to the contracture-causing effect of BHT 920 (2-amino-6-allyl-5,6,7,8-tetrahydro[4,5-d]thiazolo-4H-azepinedihydrochloride) (α2 adrenergic agonist) on rat aorta is taken as an example. There is antagonism when a substance is capable of partially or totally opposing the effects of an agonistic substance.
Rapidly removed female Wistar rat aorta is received in a Krebs solution containing: NaCl 120 mM; KCl 4.8 mM; NaHCO3 25 mM; glucose 10 mM; CaCl2 1.25 mM; MgSO4 1.19 mM; KH2 PO4 1.14 mM. The aorta, freed of connective and adipose tissue, is cut in hoops of a length of about 1 mm. Each hoop is installed in a 10 ml organ cell containing Krebs liquid at 37°, oxygenated with an oxygen-carbon dioxide mixture (95% O2 and 5% CO2) and connected to an isometric sensor of tradename Statham and made by Gould Inc., Medical Product Division, under a base tension of 2 g. Recording of the contractions is effected with a polygraph of tradename Beckman and made by Beckman. After a rest period (1 h) interrupted by washings, a first effect-concentration relation is established by studying the contraction provoked by addition in the cell of increasing concentrations of BHT 920. After a new rest period interrupted by washings (30 min.) where the organ returns to the initial tension, the antagonist is placed in contact with the vessel for 10 minutes; the a new effect-concentration relation with BHT 920 is established. In preliminary experiments, it was established that the first and second effect-concentration relation of the agonist are identical in the absence of antagonist. […] The displacement increases with ISK concentration. […] The apparent dissociation constant of ISK7, calculated from experiments illustrated in FIG. 1 for a competitive antagonism according to Furchgott R. F. (in Catecholamines, ed. by Blaschko and Muscholl, Springer-Verlag, Berlin, 1972, pp. 283-335) is 1.2×10^-7 M for the two concentrations employed. […]

[5] = target: T2, α1 adrenergic receptors of isolated rat deferent canal (Rattus norvegicus, UniProt P43140); experiment: antagonism with phenylephrine induced contraction of rat deferent canal; parameters: species or system rat (male Wistar); conditions: for effect on effect-concentration curves of phenylephrine: FIG. 3; for slope of Schild relation, antagonism with phenylephrine: rat deferent canal
T2 construct: The deferent canals of 12-week old male Wistar rats are removed; from tissue; host or cells: isolated vas deferens (deferent canal) of male Wistar rats
T2 sequence (P43140 1-466): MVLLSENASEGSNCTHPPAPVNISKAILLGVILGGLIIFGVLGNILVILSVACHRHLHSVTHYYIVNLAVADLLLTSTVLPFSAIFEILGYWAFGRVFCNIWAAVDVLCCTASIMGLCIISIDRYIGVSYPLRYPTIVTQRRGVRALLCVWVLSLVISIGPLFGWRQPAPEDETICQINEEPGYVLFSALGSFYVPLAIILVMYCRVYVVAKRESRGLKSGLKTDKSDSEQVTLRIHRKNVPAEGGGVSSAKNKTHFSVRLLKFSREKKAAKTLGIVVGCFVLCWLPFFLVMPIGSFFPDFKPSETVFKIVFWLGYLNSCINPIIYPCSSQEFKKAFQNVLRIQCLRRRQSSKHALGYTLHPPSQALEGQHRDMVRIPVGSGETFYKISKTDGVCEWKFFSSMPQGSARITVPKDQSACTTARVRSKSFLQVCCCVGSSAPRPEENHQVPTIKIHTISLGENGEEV
Experimental: The deferent canals of 12-week old male Wistar rats are removed.
Each organ is connected to an isometric sensor of tradename Statham, made by Gould Inc., Medical Product Division, under a base tension of 0.5 g. Contractions are recorded by a polygraph of tradename Beckman, made by Beckman. To characterize the α2 blocking effect, the deferent canal is electrically stimulated by rectangular impulses of 2 msec duration, 30 volts, with a frequency of 0.2 Hz delivered by a stimulator of tradename Bioscience (Stimulator 100), made by Palmer. After a rest period of 20-30 minutes, increasing concentrations of clonidine are added to the survival medium over 2 minutes. This permits establishing the relation between the effect and concentration of clonidine. After generating two successive, cumulative effect-concentration curves separated by a rest period of 20 minutes, the antagonist is placed in contact with the isolated organ for 10 minutes and a new effect-concentration relationship is determined.
To characterize the α1 blocking effect, the organ is stimulated by phenylephrine. […] After a rest period of 30 minutes, increasing concentrations of phenylephrine are added in the organ cell over 30 seconds. A first effect-concentration relationship is established. After a washing and a new rest period of 15 mins. wherein the organ returns to the initial tension, a second effect-concentration relationship is effected. The antagonist is placed in contact with the tissue returned to its base tension after washing and a third effect-concentration relationship is determined. […] The apparent dissociation constant (KD), calculated according to Furchgott, is the relation between the molar concentration of antagonist and the relation of equiactive doses of agonist (in the presence and absence of antagonist) -1.

[6] = target: T3, α2 adrenergic receptors of isolated rat deferent canal (Rattus norvegicus, UniProt P22909); experiment: antagonism with clonidine on electrically stimulated rat deferent canal
T3 sequence (P22909 1-465): T1 sequence (P22909 1-465)
Experimental: Each organ is connected to an isometric sensor of tradename Statham, made by Gould Inc., Medical Product Division, under a base tension of 0.5 g. Contractions are recorded by a polygraph of tradename Beckman, made by Beckman. To characterize the α2 blocking effect, the deferent canal is electrically stimulated by rectangular impulses of 2 msec duration, 30 volts, with a frequency of 0.2 Hz delivered by a stimulator of tradename Bioscience (Stimulator 100), made by Palmer. After a rest period of 20-30 minutes, increasing concentrations of clonidine are added to the survival medium over 2 minutes. This permits establishing the relation between the effect and concentration of clonidine. After generating two successive, cumulative effect-concentration curves separated by a rest period of 20 minutes, the antagonist is placed in contact with the isolated organ for 10 minutes and a new effect-concentration relationship is determined. In preliminary experiments, it was established that the second and third effect-concentration relation with the agonist are identical in the absence of antagonist.
To characterize the α1 blocking effect, the organ is stimulated by phenylephrine. Stimulation of the rat deferent canal produces a rapid contractile response (maximum contraction is obtained in 30 seconds). After a rest period of 30 minutes, increasing concentrations of phenylephrine are added in the organ cell over 30 seconds. A first effect-concentration relationship is established. After a washing and a new rest period of 15 mins. wherein the organ returns to the initial tension, a second effect-concentration relationship is effected. The antagonist is placed in contact with the tissue returned to its base tension after washing and a third effect-concentration relationship is determined. In preliminary experiments, it was established that the second and third effect-concentration relationship of the agonist are identical in the absence of antagonist. […] The apparent dissociation constant (KD), calculated according to Furchgott, is the relation between the molar concentration of antagonist and the relation of equiactive doses of agonist (in the presence and absence of antagonist) -1.
The effect (inhibition of the contractile response) is expressed as a percentage of the maximum effect.

α1 receptors = conditions: statement in words, background; cited from earlier work

Ki [1]: 2900 ± 400 nM
Ki [2]: 0.81 ± 0.11 µM
SMILES: COc1cc(N)c(CN2CCc3cc(OC)c(OC)cc3C2)cc1OC [ISK4, 2-(2-amino-4,5-dimethoxybenzyl)-6,7-dimethoxy-1,2,3,4-tetrahydroisoquinoline]

Ki [1]: 990 ± 50 nM
Ki [2]: 0.063 ± 0.02 µM
affinity for the binding sites of [^3 H] dexetimide (D2 dopaminergic receptor): no affinity
affinity for the binding sites of [^3 H] ketanserine (serotonergic receptor): no affinity
affinity for the binding sites of [^3 H] pyrilamine (H1 histaminic receptor): no affinity
affinity for the binding sites of [^3 H] nitrendipine [3]: no affinity
slope of Schild relation, antagonism with phenylephrine [5]: very different than 1
Kd ([5]; read-out: log of KD, antagonism with phenylephrine (pA2 cannot be calculated) (converted)): 2.88 µM
Kb [6]: 0.2 µM
antagonist selectivity on isolated rat deferent canal ([6]; clonidine (α2) versus phenylephrine (α1)): selective, α2 type adrenergic antagonist
slope of Schild relation, antagonism with clonidine ([6]; rat deferent canal, electric stimulation): 1.05
SMILES: COc1ccc2c(c1)CCN(Cc1cc(OC)c(OC)cc1N)C2 [ISK7, 2-(2-amino-4,5-dimethoxybenzyl)-6-methoxy-1,2,3,4-tetrahydroisoquinoline]
Kd ([4]; according to Furchgott, competitive antagonism, two concentrations (10^-7 and 10^-6), read-out: apparent dissociation constant (antagonism of BHT 920, rat aorta)): 0.12 µM
pA2 on aorta ([4]; antagonism with BHT 920): 6.9
effect on effect-concentration curve of BHT 920 ([4]; rat aorta, 10 minutes contact): shift to the right of the effect-concentration curve of the agonist, without depression of the maximum
effect on effect-concentration curves of phenylephrine [5]: shifted toward the right without depression of the maximum
inhibition of the effect of phenylephrine relative to clonidine ([5]; α1 versus α2, rat deferent canal): only at concentrations very significantly higher than the concentrations at which it competitively inhibits the effect of α2 selective agonist, clonidine
effect on effect-concentration curves of clonidine ([6]; FIG. 2, ISK7 100-3000 nM, prazosine 1000-10,000 nM, yohimbine 30-1000 nM): shift toward the right of the effect-concentration curves of agonist without diminution of the maximum effect

Ki [1]: 3400 ± 300 nM
Ki [2]: 1.7 ± 0.3 µM
SMILES: COc1cc2c(cc1OC)CN(Cc1ccccc1N)CC2 [ISK17, 2-(2-aminobenzyl)-6,7-dimethoxy-1,2,3,4-tetrahydroisoquinoline]

Ki [1]: 3220 ± 70 nM
Ki [2]: 0.22 ± 0.075 µM
SMILES: COc1cc(N)c(CN2CCc3ccccc3C2)cc1OC [ISK18, 2-(2-amino-4,5-dimethoxybenzyl)-1,2,3,4-tetrahydroisoquinoline]

Ki [1]: > 10000 nM
Ki [2]: 2.67 ± 0.4 µM
SMILES: CNc1cc(OC)c(OC)cc1CN1CCc2cc(OC)c(OC)cc2C1 [ISK23, 2-(2-methylamino-4,5-dimethoxybenzyl)-6,7-dimethoxy-1,2,3,4-tetrahydroisoquinoline]

Further lines, the molecule ahead of its results:

SMILES: O=[N+]([O-])c1cc(Cl)ccc1CN1CCc2ccccc2C1 [ISK24, 2-(2-nitro-4-chlorobenzyl)-1,2,3,4-tetrahydroisoquinoline]
Ki [1]: > 30000 nM
Ki [2]: 2.74 ± 1.02 µM

SMILES: Nc1cc(Cl)ccc1CN1CCc2ccccc2C1 [ISK25, 2-(2-amino-4-chlorobenzyl)-1,2,3,4-tetrahydroisoquinoline]
Ki [1]: > 30000 nM
Ki [2]: 1.4 ± 0.375 µM

SMILES: COc1ccc2c(c1)CCN(Cc1ccc(Cl)cc1N)C2 [ISK31, 2-(2-amino-4-chlorobenzyl)-6-methoxy-1,2,3,4-tetrahydroisoquinoline]
Ki [1]: 1800 ± 330 nM
Ki [2]: 0.155 ± 0.035 µM

SMILES: COc1cc2nc(N3CCN(C(=O)c4ccco4)CC3)nc(N)c2cc1OC [Prazosine [^3 H], reference compound]
Kd ([1]; read-out: KD of Prazosine [^3 H], radioligand): 0.00014 µM

SMILES: COc1cc2nc(N3CCN(C(=O)c4ccco4)CC3)nc(N)c2cc1OC [Prazosine, reference compound]
effect on effect-concentration curves of phenylephrine [5]: shifted toward the right without depression of the maximum
slope of Schild relation, antagonism with phenylephrine [5]: 0.99

SMILES: COC(=O)[C@@H]1[C@H]2C[C@H]3c4[nH]c5ccccc5c4CCN3C[C@@H]2CC[C@@H]1O [Yohimbine, reference compound]
Ki [1]: 350 ± 30 nM
effect on effect-concentration curves of phenylephrine [5]: shifted toward the right without depression of the maximum
slope of Schild relation, antagonism with phenylephrine [5]: 0.85
affinity for α1 receptors (α1 receptors): only slight affinity
effect on effect-concentration curves of clonidine [6]: shift toward the right of the effect-concentration curves of agonist without diminution of the maximum effect
slope of Schild relation, antagonism with clonidine [6]: 1.15
